Results as given in the kinase profiling compilation of Christmann-Franck et al. (2016).

Key:
Test in all cases: radiometric filter-binding kinase assay, Kinase HotSpot
Settings in all cases: compound 0.5 µM; ATP 10 µM
EPHA8 (human) = EPHA8 (human) (UniProt P29322)
CAMK2D (human) = CAMK2D (human) (UniProt Q13557)
FES (human) = FES (human) (UniProt P07332)
CSNK1G1 (human) = CSNK1G1 (human) (UniProt Q9HCP0)
SRMS (human) = SRMS (human) (UniProt Q9H3Y6)
ULK2 (human) = ULK2 (human) (UniProt Q8IYT8)
CAMK1D (human) = CAMK1D (human) (UniProt Q8IU85)
Chain of CAMK1D (human) (Q8IU85 whole entry, looked up): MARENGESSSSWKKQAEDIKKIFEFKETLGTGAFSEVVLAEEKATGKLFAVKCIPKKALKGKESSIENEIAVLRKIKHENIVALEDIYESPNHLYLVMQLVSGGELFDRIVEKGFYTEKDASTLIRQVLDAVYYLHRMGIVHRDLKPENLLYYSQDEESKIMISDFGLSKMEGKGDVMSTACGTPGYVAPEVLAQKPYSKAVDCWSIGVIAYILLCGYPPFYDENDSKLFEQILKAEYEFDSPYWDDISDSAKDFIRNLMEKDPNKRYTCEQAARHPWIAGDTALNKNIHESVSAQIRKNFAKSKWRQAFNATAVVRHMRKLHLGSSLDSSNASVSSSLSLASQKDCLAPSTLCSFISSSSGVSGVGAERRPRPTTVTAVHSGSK

HIPK3 (human) = HIPK3 (human) (UniProt Q9H422)
PDPK1 (human) = PDPK1 (human) (UniProt O15530)
CDK4 CCND1 (human) = CDK4 CCND1 (human) (UniProt P24385+P11802)
Chain of CDK4 CCND1 (human) (P11802 whole entry, looked up): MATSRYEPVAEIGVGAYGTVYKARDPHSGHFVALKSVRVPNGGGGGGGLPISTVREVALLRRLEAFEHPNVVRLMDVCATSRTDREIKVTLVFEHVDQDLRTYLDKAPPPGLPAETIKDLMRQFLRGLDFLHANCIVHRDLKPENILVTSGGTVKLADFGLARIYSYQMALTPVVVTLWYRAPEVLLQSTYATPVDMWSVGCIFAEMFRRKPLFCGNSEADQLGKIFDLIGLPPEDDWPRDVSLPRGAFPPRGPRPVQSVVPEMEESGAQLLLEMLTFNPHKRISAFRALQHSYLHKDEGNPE
Chain of CDK4 CCND1 (human) (P24385 whole entry, looked up): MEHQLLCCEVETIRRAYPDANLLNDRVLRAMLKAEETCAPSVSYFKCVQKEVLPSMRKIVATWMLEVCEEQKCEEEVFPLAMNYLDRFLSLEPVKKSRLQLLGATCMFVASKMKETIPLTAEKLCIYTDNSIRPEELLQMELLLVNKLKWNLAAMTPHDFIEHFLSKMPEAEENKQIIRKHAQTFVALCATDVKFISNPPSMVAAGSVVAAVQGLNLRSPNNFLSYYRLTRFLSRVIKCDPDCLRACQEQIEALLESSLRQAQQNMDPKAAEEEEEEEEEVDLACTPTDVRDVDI

PHKG1 (human) = PHKG1 (human) (UniProt Q16816)
Chain of PHKG1 (human) (Q16816 whole entry, looked up): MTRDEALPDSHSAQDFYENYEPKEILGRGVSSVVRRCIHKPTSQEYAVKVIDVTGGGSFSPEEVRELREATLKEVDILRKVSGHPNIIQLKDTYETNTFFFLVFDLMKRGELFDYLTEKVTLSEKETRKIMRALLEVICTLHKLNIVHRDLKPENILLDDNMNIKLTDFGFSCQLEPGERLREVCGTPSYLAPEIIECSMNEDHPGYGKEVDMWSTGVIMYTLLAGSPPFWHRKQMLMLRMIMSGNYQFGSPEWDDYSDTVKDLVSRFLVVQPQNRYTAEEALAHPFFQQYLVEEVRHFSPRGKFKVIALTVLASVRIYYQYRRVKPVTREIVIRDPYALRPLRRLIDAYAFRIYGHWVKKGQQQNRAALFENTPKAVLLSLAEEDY

EGFR (human) = EGFR (human) (UniProt P00533)
SLK (human) = SLK (human) (UniProt Q9H2G2)
NTRK3 (human) = NTRK3 (human) (UniProt Q16288)
CHEK1 (human) = CHEK1 (human) (UniProt O14757)
TAOK3 (human) = TAOK3 (human) (UniProt Q9H2K8)
CSNK1G3 (human) = CSNK1G3 (human) (UniProt Q9Y6M4)
CSNK2A2 (human) = CSNK2A2 (human) (UniProt P19784)
CAMK2B (human) = CAMK2B (human) (UniProt Q13554)
EPHB3 (human) = EPHB3 (human) (UniProt P54753)
CAMK1G (human) = CAMK1G (human) (UniProt Q96NX5)
TYRO3 (human) = TYRO3 (human) (UniProt Q06418)
STK3 (human) = STK3 (human) (UniProt Q13188)
MAP3K5 (human) = MAP3K5 (human) (UniProt Q99683)
AKT1 (human) = AKT1 (human) (UniProt P31749)
MAP4K4 (human) = MAP4K4 (human) (UniProt O95819)
FGFR1 (human) = FGFR1 (human) (UniProt P11362)
MAPK3 (human) = MAPK3 (human) (UniProt P27361)
IKBKE (human) = IKBKE (human) (UniProt Q14164)
MAP2K1 (human) = MAP2K1 (human) (UniProt Q02750)
Chain of MAP2K1 (human) (Q02750 whole entry, looked up): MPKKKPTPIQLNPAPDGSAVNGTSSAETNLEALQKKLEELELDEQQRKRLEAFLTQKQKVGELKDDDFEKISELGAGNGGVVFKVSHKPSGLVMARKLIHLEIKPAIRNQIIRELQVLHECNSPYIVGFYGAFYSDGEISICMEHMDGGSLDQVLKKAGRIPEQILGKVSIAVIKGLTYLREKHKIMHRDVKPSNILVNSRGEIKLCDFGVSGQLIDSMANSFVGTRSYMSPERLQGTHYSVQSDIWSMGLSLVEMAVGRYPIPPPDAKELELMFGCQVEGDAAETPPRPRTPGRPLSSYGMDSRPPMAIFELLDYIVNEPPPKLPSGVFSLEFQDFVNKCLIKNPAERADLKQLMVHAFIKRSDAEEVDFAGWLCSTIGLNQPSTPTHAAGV

MAP4K5 (human) = MAP4K5 (human) (UniProt Q9Y4K4)
MELK (human) = MELK (human) (UniProt Q14680)
FGFR4 (human) = FGFR4 (human) (UniProt P22455)
GRK4 (human) = GRK4 (human) (UniProt P32298)
CDK1 CCNB1 (human) = CDK1 CCNB1 (human) (UniProt P06493+P14635)
Chain of CDK1 CCNB1 (human) (P06493 whole entry, looked up): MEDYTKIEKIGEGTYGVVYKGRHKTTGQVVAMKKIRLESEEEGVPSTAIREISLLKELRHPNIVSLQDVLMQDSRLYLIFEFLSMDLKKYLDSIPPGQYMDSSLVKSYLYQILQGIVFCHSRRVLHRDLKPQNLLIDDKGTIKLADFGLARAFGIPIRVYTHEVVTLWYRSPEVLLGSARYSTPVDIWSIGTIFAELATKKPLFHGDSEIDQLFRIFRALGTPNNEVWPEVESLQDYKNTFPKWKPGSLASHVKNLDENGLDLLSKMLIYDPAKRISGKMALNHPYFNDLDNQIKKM
Chain of CDK1 CCNB1 (human) (P14635 whole entry, looked up): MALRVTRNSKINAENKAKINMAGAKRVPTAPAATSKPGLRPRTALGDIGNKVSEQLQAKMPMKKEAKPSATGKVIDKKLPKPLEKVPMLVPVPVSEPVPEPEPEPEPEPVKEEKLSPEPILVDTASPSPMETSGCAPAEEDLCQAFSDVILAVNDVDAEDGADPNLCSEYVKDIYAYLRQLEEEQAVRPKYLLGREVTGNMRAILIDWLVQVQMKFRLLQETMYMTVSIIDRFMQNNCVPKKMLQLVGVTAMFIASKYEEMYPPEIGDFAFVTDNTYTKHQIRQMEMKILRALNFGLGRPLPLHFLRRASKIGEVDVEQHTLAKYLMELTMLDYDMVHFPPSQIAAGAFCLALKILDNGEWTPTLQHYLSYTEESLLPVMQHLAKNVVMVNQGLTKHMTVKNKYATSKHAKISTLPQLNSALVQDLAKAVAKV

MARK1 (human) = MARK1 (human) (UniProt Q9P0L2)
CDK3 CCNE1 (human) = CDK3 CCNE1 (human) (UniProt Q00526+P24864)
EPHA5 (human) = EPHA5 (human) (UniProt P54756)
IKBKB (human) = IKBKB (human) (UniProt O14920)
Chain of IKBKB (human) (O14920 whole entry, looked up): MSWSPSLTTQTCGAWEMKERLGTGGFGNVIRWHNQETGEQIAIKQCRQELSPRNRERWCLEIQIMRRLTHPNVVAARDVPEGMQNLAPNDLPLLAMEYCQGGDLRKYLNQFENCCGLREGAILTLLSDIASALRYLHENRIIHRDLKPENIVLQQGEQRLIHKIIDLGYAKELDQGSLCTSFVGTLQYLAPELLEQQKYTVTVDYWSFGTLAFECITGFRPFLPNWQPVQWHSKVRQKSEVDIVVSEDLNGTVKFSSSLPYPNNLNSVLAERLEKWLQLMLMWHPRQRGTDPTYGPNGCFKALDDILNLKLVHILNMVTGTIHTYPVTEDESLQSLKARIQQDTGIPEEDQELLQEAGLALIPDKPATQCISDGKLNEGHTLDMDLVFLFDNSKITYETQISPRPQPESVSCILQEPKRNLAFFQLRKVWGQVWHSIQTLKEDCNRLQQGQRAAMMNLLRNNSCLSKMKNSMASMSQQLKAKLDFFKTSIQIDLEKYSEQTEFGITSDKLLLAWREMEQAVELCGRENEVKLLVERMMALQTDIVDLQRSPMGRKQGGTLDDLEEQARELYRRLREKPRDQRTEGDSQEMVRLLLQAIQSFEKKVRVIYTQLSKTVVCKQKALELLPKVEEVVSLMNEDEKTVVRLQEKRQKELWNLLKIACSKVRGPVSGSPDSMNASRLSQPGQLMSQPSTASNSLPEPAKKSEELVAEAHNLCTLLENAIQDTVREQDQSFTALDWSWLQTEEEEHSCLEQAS

MAPK13 (human) = MAPK13 (human) (UniProt O15264)
Chain of MAPK13 (human) (O15264 whole entry, looked up): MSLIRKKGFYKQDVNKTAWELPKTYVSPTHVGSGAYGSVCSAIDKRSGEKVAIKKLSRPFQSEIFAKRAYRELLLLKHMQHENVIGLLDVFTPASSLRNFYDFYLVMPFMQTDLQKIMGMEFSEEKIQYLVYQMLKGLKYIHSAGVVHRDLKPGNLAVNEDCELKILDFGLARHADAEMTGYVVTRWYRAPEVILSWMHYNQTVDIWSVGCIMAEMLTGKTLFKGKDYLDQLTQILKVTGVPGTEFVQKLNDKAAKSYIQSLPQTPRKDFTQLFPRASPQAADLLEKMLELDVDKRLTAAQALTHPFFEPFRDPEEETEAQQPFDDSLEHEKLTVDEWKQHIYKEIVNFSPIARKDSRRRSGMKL

CLK2 (human) = CLK2 (human) (UniProt P49760)
ROCK2 (human) = ROCK2 (human) (UniProt O75116)

Chain of ULK2 (human) (Q8IYT8 whole entry, looked up): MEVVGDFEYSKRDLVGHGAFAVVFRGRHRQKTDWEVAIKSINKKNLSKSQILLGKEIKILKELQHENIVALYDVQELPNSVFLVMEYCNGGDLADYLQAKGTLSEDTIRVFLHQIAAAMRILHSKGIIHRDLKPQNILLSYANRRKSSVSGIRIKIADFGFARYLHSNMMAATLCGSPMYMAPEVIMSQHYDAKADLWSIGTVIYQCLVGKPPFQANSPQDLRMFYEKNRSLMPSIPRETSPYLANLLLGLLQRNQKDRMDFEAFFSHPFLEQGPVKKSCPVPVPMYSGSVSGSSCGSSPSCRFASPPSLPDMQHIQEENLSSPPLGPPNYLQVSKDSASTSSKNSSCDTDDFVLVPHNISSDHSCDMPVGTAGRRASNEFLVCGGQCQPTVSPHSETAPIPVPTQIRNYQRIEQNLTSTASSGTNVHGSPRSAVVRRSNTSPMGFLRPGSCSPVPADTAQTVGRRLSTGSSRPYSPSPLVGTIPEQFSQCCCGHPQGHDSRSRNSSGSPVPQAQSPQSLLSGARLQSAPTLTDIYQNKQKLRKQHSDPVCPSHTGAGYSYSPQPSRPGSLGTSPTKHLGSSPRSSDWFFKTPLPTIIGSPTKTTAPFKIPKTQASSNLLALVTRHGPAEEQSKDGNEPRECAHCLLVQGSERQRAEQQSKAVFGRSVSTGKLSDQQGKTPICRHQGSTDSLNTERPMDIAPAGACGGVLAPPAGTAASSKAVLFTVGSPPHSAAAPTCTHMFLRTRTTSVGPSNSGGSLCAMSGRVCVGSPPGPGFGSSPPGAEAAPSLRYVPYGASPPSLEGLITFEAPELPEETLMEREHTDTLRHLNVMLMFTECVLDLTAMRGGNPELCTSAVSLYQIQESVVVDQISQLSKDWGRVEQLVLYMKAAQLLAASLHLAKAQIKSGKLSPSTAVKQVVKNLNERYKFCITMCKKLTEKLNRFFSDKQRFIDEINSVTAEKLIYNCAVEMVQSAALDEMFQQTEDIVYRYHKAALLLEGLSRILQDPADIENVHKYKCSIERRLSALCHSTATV

O=C(Nc1cccc(Nc2cc(Nc3cccc(C(F)(F)F)c3)ncn2)c1)C1CC1
residual activity (EPHA8 (human)): 103%
residual activity (CAMK2D (human)): 101%
residual activity (FES (human)): 101%
residual activity (CSNK1G1 (human)): 94.8%
residual activity (SRMS (human)): 95.2%
residual activity (ULK2 (human)): 102%
residual activity (CAMK1D (human)): 100%
residual activity (HIPK3 (human)): 97%
residual activity (PDPK1 (human)): 100%
residual activity (CDK4 CCND1 (human)): 103%
residual activity (PHKG1 (human)): 100%
residual activity (EGFR (human)): 5.82%
residual activity (SLK (human)): 102%
residual activity (NTRK3 (human)): 95.1%
residual activity (CHEK1 (human)): 105%
residual activity (TAOK3 (human)): 98.7%
residual activity (CSNK1G3 (human)): 107%
residual activity (CSNK2A2 (human)): 94.9%
residual activity (CAMK2B (human)): 105%
residual activity (EPHB3 (human)): 87.9%
residual activity (CAMK1G (human)): 96.9%
residual activity (TYRO3 (human)): 85.4%
residual activity (STK3 (human)): 102%
residual activity (MAP3K5 (human)): 104%
residual activity (AKT1 (human)): 102%
residual activity (MAP4K4 (human)): 102%
residual activity (FGFR1 (human)): 103%
residual activity (MAPK3 (human)): 101%
residual activity (IKBKE (human)): 97.7%
residual activity (MAP2K1 (human)): 98.9%
residual activity (MAP4K5 (human)): 96.1%
residual activity (MELK (human)): 104%
residual activity (FGFR4 (human)): 102%
residual activity (GRK4 (human)): 104%
residual activity (CDK1 CCNB1 (human)): 96.4%
residual activity (MARK1 (human)): 102%
residual activity (CDK3 CCNE1 (human)): 94.8%
residual activity (EPHA5 (human)): 106%
residual activity (IKBKB (human)): 100%
residual activity (MAPK13 (human)): 106%
residual activity (CLK2 (human)): 97.3%
residual activity (ROCK2 (human)): 99.2%

O=C1NC(=O)/C(=C\c2ccc3nccnc3c2)S1
residual activity (EPHA8 (human)): 94.2%
residual activity (CAMK2D (human)): 93.7%
residual activity (FES (human)): 96.4%
residual activity (CSNK1G1 (human)): 101%
residual activity (SRMS (human)): 96.6%
residual activity (ULK2 (human)): 104%
residual activity (CAMK1D (human)): 102%
residual activity (HIPK3 (human)): 92.4%
residual activity (PDPK1 (human)): 104%
residual activity (CDK4 CCND1 (human)): 94.4%
residual activity (PHKG1 (human)): 91.3%
residual activity (EGFR (human)): 81.6%
residual activity (SLK (human)): 96.3%
residual activity (NTRK3 (human)): 95.3%
residual activity (CHEK1 (human)): 99.4%
residual activity (TAOK3 (human)): 93.1%
residual activity (CSNK1G3 (human)): 79.9%
residual activity (CSNK2A2 (human)): 3.08%
residual activity (CAMK2B (human)): 89.3%
residual activity (EPHB3 (human)): 94.5%
residual activity (CAMK1G (human)): 105%
residual activity (TYRO3 (human)): 99.1%
residual activity (STK3 (human)): 104%
residual activity (MAP3K5 (human)): 102%
residual activity (AKT1 (human)): 98.3%
residual activity (MAP4K4 (human)): 80.9%
residual activity (FGFR1 (human)): 88.5%
residual activity (MAPK3 (human)): 87.8%
residual activity (IKBKE (human)): 99.5%
residual activity (MAP2K1 (human)): 89.5%
residual activity (MAP4K5 (human)): 85.4%
residual activity (MELK (human)): 90.7%
residual activity (FGFR4 (human)): 98%
residual activity (GRK4 (human)): 106%
residual activity (CDK1 CCNB1 (human)): 93.8%
residual activity (MARK1 (human)): 96.2%
residual activity (CDK3 CCNE1 (human)): 91.7%
residual activity (EPHA5 (human)): 99.5%
residual activity (IKBKB (human)): 96.1%
residual activity (MAPK13 (human)): 99.1%
residual activity (CLK2 (human)): 74%
residual activity (ROCK2 (human)): 91.3%

COc1cc2ncnc(N3CCN(C(=O)Nc4ccc(Oc5ccccc5)cc4)CC3)c2cc1OC
residual activity (EPHA8 (human)): 92.5%
residual activity (CAMK2D (human)): 70.9%
residual activity (FES (human)): 98.3%
residual activity (CSNK1G1 (human)): 81.6%
residual activity (SRMS (human)): 93.6%
residual activity (ULK2 (human)): 102%
residual activity (CAMK1D (human)): 104%
residual activity (HIPK3 (human)): 87.4%
residual activity (PDPK1 (human)): 92.3%
residual activity (CDK4 CCND1 (human)): 101%
residual activity (PHKG1 (human)): 89.5%
residual activity (EGFR (human)): 79.1%
residual activity (SLK (human)): 97.9%
residual activity (NTRK3 (human)): 89%
residual activity (CHEK1 (human)): 99.4%
residual activity (TAOK3 (human)): 95.3%
residual activity (CSNK1G3 (human)): 82.7%
residual activity (CSNK2A2 (human)): 61.9%
residual activity (CAMK2B (human)): 96.3%
residual activity (EPHB3 (human)): 89.6%
residual activity (CAMK1G (human)): 100%
residual activity (TYRO3 (human)): 99.6%
residual activity (STK3 (human)): 93.3%
residual activity (MAP3K5 (human)): 102%
residual activity (AKT1 (human)): 93.7%
residual activity (MAP4K4 (human)): 88.4%
residual activity (FGFR1 (human)): 89.6%
residual activity (MAPK3 (human)): 102%
residual activity (IKBKE (human)): 98.9%
residual activity (MAP2K1 (human)): 91.2%
residual activity (MAP4K5 (human)): 81.6%
residual activity (MELK (human)): 94.9%
residual activity (FGFR4 (human)): 99.7%
residual activity (GRK4 (human)): 94.7%
residual activity (CDK1 CCNB1 (human)): 105%
residual activity (MARK1 (human)): 99.1%
residual activity (CDK3 CCNE1 (human)): 82%
residual activity (EPHA5 (human)): 98.3%
residual activity (IKBKB (human)): 102%
residual activity (MAPK13 (human)): 104%
residual activity (CLK2 (human)): 81.3%
residual activity (ROCK2 (human)): 125%

CCN(CC)CCCCN1c2ccccc2Oc2ccc(Cl)cc21
residual activity (EPHA8 (human)): 102%
residual activity (CAMK2D (human)): 105%
residual activity (FES (human)): 99.8%
residual activity (CSNK1G1 (human)): 104%
residual activity (SRMS (human)): 105%
residual activity (ULK2 (human)): 103%
residual activity (CAMK1D (human)): 107%
residual activity (HIPK3 (human)): 94.2%
residual activity (PDPK1 (human)): 111%
residual activity (CDK4 CCND1 (human)): 107%
residual activity (PHKG1 (human)): 96.5%
residual activity (EGFR (human)): 99.2%
residual activity (SLK (human)): 105%
residual activity (NTRK3 (human)): 103%
residual activity (CHEK1 (human)): 101%
residual activity (TAOK3 (human)): 110%
residual activity (CSNK1G3 (human)): 78.3%
residual activity (CSNK2A2 (human)): 94.6%
residual activity (CAMK2B (human)): 107%
residual activity (EPHB3 (human)): 112%
residual activity (CAMK1G (human)): 99.2%
residual activity (TYRO3 (human)): 103%
residual activity (STK3 (human)): 106%
residual activity (MAP3K5 (human)): 106%
residual activity (AKT1 (human)): 112%
residual activity (MAP4K4 (human)): 104%
residual activity (FGFR1 (human)): 105%
residual activity (MAPK3 (human)): 111%
residual activity (IKBKE (human)): 102%
residual activity (MAP2K1 (human)): 98.1%
residual activity (MAP4K5 (human)): 93.4%
residual activity (MELK (human)): 95.3%
residual activity (FGFR4 (human)): 92.6%
residual activity (GRK4 (human)): 102%
residual activity (CDK1 CCNB1 (human)): 96.8%
residual activity (MARK1 (human)): 100%
residual activity (CDK3 CCNE1 (human)): 90.3%
residual activity (EPHA5 (human)): 109%
residual activity (IKBKB (human)): 96.6%
residual activity (MAPK13 (human)): 94.3%
residual activity (CLK2 (human)): 105%
residual activity (ROCK2 (human)): 104%
